What was measured:
[1] = test system: ob/ob mice; conditions: 10 mg/kg p.o.
Description: The DPP-IV inhibitors were administered to overnight fasted ob/ob mice for the above stated period, followed by oral glucose challenge (2 g/kg). Blood samples collected at 0, 15, 30, 60, and 120 min after glucose load were processed as described earlier and blood glucose concentrations measured using Biochemical AutoAnalyzer, Dimension AR (Dade Behring, USA). AUC0-120 min were calculated and the percent glucose excursion was estimated at different duration of treatment compared to vehicle.

[2] = Plasma levels of active GLP-1 and insulin (unpublished observations); assay type: in vivo

N[C@@H](CC(=O)N1CCn2c(nnc2C(F)(F)F)C1)Cc1cc(F)c(F)cc1F [sitagliptin]
Glucose lowering (glucose excursion, AUC0-120 min vs vehicle) at 8 h ([1]; OGTT 2 g/kg 8 h after dosing): ~ 35% | Reduction in AUCGlucose at 12 h ([1]; OGTT 2 g/kg 12 h after dosing): -23% | Augmentation of plasma active GLP-1 [2]: twofold | Augmentation of plasma insulin [2]: twofold

N#C[C@@H]1CCCN1C(=O)CNC12CC3CC(CC(O)(C3)C1)C2 [vildagliptin]
Augmentation of plasma active GLP-1 [2]: twofold | Augmentation of plasma insulin [2]: twofold

Reference: PMC2941613 (Indian Journal of Pharmacology, 2010)
